The values below come from ChEMBL document CHEMBL5329181, “Green synthesis and anti-biofilm activities of 3,5-disubstituted isoxazoline/isoxazole-linked secondary sulfonamide derivatives on Pseudomonas aeruginosa” (2023).

Molecules are shown by their SMILES. The source made the active and inactive calls. The rule behind the calls is not given here.

Assay [1] relates to Pseudomonas aeruginosa. The assay is described as follows: Antibiofilm activity against Pseudomonas aeruginosa assessed as inhibition of biofilm formation at 200 uM incubated for 24 hrs by crystal violet staining based assay. Format: functional, organism-based.
In assay [2] the test system is Pseudomonas aeruginosa. Put plainly: Antibacterial activity against Pseudomonas aeruginosa H103 assessed as reduction in bacterial growth at 200 uM measured every 15 min for 24 hrs by optical density based analysis. Format: functional, organism-based.
For assay [3], the system named is Pseudomonas aeruginosa. The assay is described as follows: Destabilization of mature biofilms in Pseudomonas aeruginosa assessed as biofilm dispersion at 200 uM incubated for 24 hrs by crystal violet staining based assay relative to control. Format: functional.

With `NNC(=O)c1ccccc1S(=O)(=O)NCC1CC(c2cccc([N+](=O)[O-])c2)=NO1` (stereo not drawn), the outcome in assay [1] and in assay [2] was inactive.
On to `NNC(=O)c1ccccc1S(=O)(=O)NCc1cc(-c2ccc(Cl)cc2Cl)no1`, for which the Activity in assay [3] is 50%. Further, the result in assay [1] and in assay [2] was inactive.
Take `NNC(=O)c1ccccc1S(=O)(=O)NCC1CC(c2ccc(Cl)c(Cl)c2)=NO1` (stereo not drawn): the outcome in assay [1] and in assay [2] was inactive.
As to `NNC(=O)c1ccccc1S(=O)(=O)NCC1CC(c2ccccc2Cl)=NO1` (stereo not drawn), the result in assay [3], in assay [1] and in assay [2] was inactive.
`CN[C@@H]1[C@@H](O[C@H]2O[C@H](CO)[C@@H](N)[C@H](O)[C@H]2O)O[C@H]2C[C@@H](N)[C@@H](O[C@H]3[C@H](O)[C@@H](O)[C@H](N)C[C@@H]3N)O[C@@H]2[C@@H]1O`: the Activity in assay [3] is 50%.
Consider `NNC(=O)c1ccccc1S(=O)(=O)NCC1CC(c2ccccc2)=NO1` (stereo not drawn), for which the outcome in assay [1] and in assay [2] was inactive.
On to `NNC(=O)c1ccccc1S(=O)(=O)NCC1CC(c2ccc(Br)cc2)=NO1` (stereo not drawn), for which the outcome in assay [1] and in assay [2] was inactive.
For `C=CCNS(=O)(=O)c1ccccc1C(=O)NN`, in assay [3], the Activity stood at 30%. The outcome in assay [1] and in assay [2] was inactive.
As for `Cc1ccc(C2=NOC(CNS(=O)(=O)c3ccccc3C(=O)NN)C2)cc1` (stereo not drawn), the result in assay [1] and in assay [2] was inactive.
Take `NNC(=O)c1ccccc1S(=O)(=O)NCC1CC(c2ccc(Cl)cc2Cl)=NO1` (stereo not drawn): the Activity in assay [3] is on record as 50%. Also, the result in assay [1] and in assay [2] was inactive.
For the molecule `NNC(=O)c1ccccc1S(=O)(=O)NCC1CC(c2ccc(Cl)cc2)=NO1` (stereo not drawn), the outcome in assay [3], in assay [1] and in assay [2] was inactive.
As to `C#CCNS(=O)(=O)c1ccccc1C(=O)NN`, the result in assay [1] and in assay [2] was inactive.
Consider `COc1ccc(C2=NOC(CNS(=O)(=O)c3ccccc3C(=O)NN)C2)cc1` (stereo not drawn), for which the Activity in assay [3] is listed as 50%. In addition, the result in assay [1] and in assay [2] was inactive.
With `NNC(=O)c1ccccc1S(=O)(=O)NCc1cc(-c2ccc(Br)cc2)no1`, the outcome in assay [1] and in assay [2] was inactive.
